Experimental data reported in patent US20260306465A1, “COMPOUNDS FOR TREATING HEREDITARY SPASTIC PARAPLEGIA” (The Children's Medical Center Corporation, priority 2023, published 2026).

Test system: AP4B1-KO SH-SY5Y cells
Assay: Testing of compounds for AP-4 deficiency: ATG9A translocation in AP4B1-KO SH-SY5Y cells
Details: 24 h, std error in own column
Experimental: SH-SY5Y cell culture. […] Media changes were done every 2-3 days and drugs were administered 24 h before fixation.
Immunocytochemistry. […] SH-SY5Y cells were fixed using 4% PFA, permeabilized with 0.1% saponin in PBS and blocked in 1% BSA/0.01% saponin (blocking solution) in PBS. Primary antibody (diluted in blocking solution) was added for 1 h at room temperature. […] Plates were then gently washed three times with PBS and protected from light.
High-content imaging and automated image analysis. […] Up to 36 fields were acquired in a 6×6 format (96-well plate) using a 40×S Plan Fluor objective (NA 0.60 m, WB 3.6-2.8 mm). Image analysis was performed using a customized image analysis pipeline in MetaXpress (Molecular Devices): Briefly, cells were identified based on the presence of DAPI signal inside a TUBB3-positive cell body. […] ATG9A fluorescence intensity (F.U.) was measured in both compartments in each cell, and the ATG9A ratio was calculated by dividing the ATG9A fluorescence intensity inside the TGN by the ATG9A fluorescence intensity in the remaining cell body:
Z′-factor robust values and strictly standardized median difference (SSMD) were calculated for each plate and only plates that met the predefined quality metrics of a Z′-factor robust 0.3 and SSMD 3 were included in analyses.

Row | Compound | EC50 (z atg9a ratio)
1 | Oc1cccc2sc(N3CCc4[nH]cnc4C3)nc12 [Compound 10] | 4.418
2 | Cc1cccc2sc(N3CCc4[nH]cnc4C3)nc12 [Compound 17] | 1.185
